pIC50: −log10 of the molar value.
Biological target: T1, CBL-B (Homo sapiens, UniProt Q13191)
T1 construct: GST
Assay: CBL-B TR-FRET IC50 screening (E1/E2 ubiquitination, Biotin-Ubiquitin, Anti GST-Tb donor / Streptavidin-d2 acceptor)
Format: biochemical
Details: CBL-B 10 nM final; 11-point titration from 100 uM; binned A-F; read-out: CBL-B TR-FRET activity IC50

T1 sequence (Q13191 whole entry): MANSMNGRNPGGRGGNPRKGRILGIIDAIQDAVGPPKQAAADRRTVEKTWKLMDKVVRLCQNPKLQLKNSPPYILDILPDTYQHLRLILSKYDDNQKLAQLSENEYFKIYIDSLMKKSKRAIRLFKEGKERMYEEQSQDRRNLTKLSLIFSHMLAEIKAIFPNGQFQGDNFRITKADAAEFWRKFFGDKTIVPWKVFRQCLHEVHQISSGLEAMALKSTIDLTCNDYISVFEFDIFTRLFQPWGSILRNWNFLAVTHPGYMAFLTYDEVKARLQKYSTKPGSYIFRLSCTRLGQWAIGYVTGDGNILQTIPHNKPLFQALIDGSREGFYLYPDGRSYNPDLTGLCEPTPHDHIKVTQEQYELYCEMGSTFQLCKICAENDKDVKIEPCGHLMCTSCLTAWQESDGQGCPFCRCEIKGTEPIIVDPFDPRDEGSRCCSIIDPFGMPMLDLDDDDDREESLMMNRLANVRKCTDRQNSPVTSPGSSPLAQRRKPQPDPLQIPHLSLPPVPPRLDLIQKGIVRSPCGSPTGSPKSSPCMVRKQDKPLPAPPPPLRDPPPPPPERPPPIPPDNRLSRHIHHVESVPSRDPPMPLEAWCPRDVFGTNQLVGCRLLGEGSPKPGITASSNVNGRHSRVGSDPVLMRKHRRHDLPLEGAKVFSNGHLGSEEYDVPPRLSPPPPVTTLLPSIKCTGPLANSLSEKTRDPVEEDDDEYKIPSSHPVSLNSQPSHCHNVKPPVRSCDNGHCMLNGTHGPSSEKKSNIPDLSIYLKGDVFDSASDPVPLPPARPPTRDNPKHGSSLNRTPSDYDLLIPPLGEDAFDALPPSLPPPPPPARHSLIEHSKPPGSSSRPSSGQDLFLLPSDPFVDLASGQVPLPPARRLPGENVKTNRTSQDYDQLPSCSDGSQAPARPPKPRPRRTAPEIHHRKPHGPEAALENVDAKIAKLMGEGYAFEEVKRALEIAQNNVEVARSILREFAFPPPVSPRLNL

| pIC50 | SMILES |
| --- | --- |
| > 7.00 | C[C@H]1CCCN(Cc2cc(C(F)(F)F)c3cn(-c4cccc([C@H](c5nncn5C)C5COC5)c4)c(=O)n3c2)C1 [Compound 140] |
| > 7.00 | C[C@@H]1CN([C@@H](C)c2cc(C(F)(F)F)c3cn(-c4cccc([C@H](c5nncn5C)C5CCC5)c4)c(=O)n3c2)CCO1 (single isomer, unassigned) [Compound 234] |
| > 7.00 | C[C@@H](c1cc(C(F)(F)F)c2cn(-c3cccc(C4(Cc5nncn5C)COC4)c3)c(=O)n2c1)N1CC[C@H](F)C1 [Compound 39] |
| > 7.00 | Cn1cnnc1[C@]1(c2cccc(-n3cc4c(C(F)(F)F)cc(CN5CC6(CC6)C5)cn4c3=O)c2)C[C@H](C)C1 (single isomer, unassigned) [Compound 236] |
| 6.52 to 7.00 | Cn1cnnc1CC1(c2cccc(-n3cc4c(C(F)(F)F)cc(Cl)cn4c3=O)c2)COC1 [Compound 93] |
| > 7.00 | C[C@H](c1cc(C(F)(F)F)c2cn(-c3cccc(C4(Cc5nncn5C)COC4)c3)c(=O)n2c1)N1CCC(C)(F)CC1 [Compound 42] |
| 6.00 to 6.52 | CN(C)C(=O)c1cc(C(F)(F)F)c2cn(-c3cccc(C4(Cc5nncn5C)COC4)c3)c(=O)n2c1 [Compound 31] |
| > 7.00 | Cn1cnnc1[C@@H](c1cccc(-n2cc3c(C(F)(F)F)cc(CN4CCC(C)(C)C4)cn3c2=O)c1)C1CCC1 [Compound 245] |
| > 7.00 | Cn1cnnc1[C@]1(c2cccc(-n3cc4c(C(F)(F)F)cc(CN5CCC(C)(F)CC5)cn4c3=O)c2)C[C@H](C)C1 (single isomer, unassigned) [Compound 227] |
| > 7.00 | C[C@H]1CCCN(Cc2cc(C(F)(F)F)c3cn(-c4cc(C#N)cc(C5(Cc6nncn6C)COC5)c4)c(=O)n3c2)C1 [Compound 183] |
| > 7.00 | C[C@H]1CCCN(Cc2cc(C(F)(F)F)c3cn(-c4cc(C#N)cc([C@@H](c5nncn5C)C5CCC5)c4)c(=O)n3c2)C1 (single isomer, unassigned) [Compound 288] |
| > 7.00 | C[C@H]1CCCN(Cc2cc(C(F)(F)F)c3cn(-c4cccc([C@]5(c6nncn6C)C[C@@H](O)C5)c4)c(=O)n3c2)C1 [Compound 255] |
| > 7.00 | Cn1cnnc1C1(c2cccc(-n3cc4c(C(F)(F)F)cc(CN5CCC(F)CC5)cn4c3=O)c2)CC2(CC2)C1 [Compound 112] |
| 6.52 to 7.00 | C[C@H]1CCCN(Cc2cc(C(F)(F)F)c3cn(-c4cccc([C@H](c5nncn5C)C5CC(F)(F)C5)c4)c(=O)n3c2)C1 (single isomer, unassigned) [Compound 343] |
| 6.00 to 6.52 | Cn1cnnc1[C@@H](c1cccc(-n2cc3c(C(F)(F)F)cc(CN4CC[C@H](C(F)(F)F)C4)cn3c2=O)c1)C1CCC1 [Compound 284] |
| < 5.00 | C[C@H]1CCCN(Cc2cc(C(F)(F)F)c3cn(-c4cccc(OCc5nncn5C)c4)c(=O)n3c2)C1 [Compound 200] |
| 6.52 to 7.00 | Cn1cnnc1CC1(c2cccc(-n3cc4c(C(F)(F)F)cc(COCCO)cn4c3=O)c2)COC1 [Compound 90] |
| > 7.00 | COCCOCc1cc(C(F)(F)F)c2cn(-c3cccc(C4(Cc5nncn5C)COC4)c3)c(=O)n2c1 [Compound 77] |

| pIC50 | SMILES |
| --- | --- |
| < 5.00 | O=c1n(-c2cccc(C3(Cc4nnc5n4CCC5)COC3)c2)cc2c(C(F)(F)F)cccn12 [Compound 210] |
| 6.00 to 6.52 | Cn1cnnc1CC1(c2cccc(-n3cc4c(C(F)F)cccn4c3=O)c2)COC1 [Compound 95] |
| > 7.00 | [2H]C([2H])([2H])n1cnnc1CC1(c2cccc(-n3cc4c(C(F)(F)F)cc(CN5CCC[C@H](C)C5)cn4c3=O)c2)COC1 [Compound 198] |
| > 7.00 | Cn1cnnc1C1(c2cccc(-n3cc4c(C(F)(F)F)cc(CN5CC[C@H](F)C5)cn4c3=O)c2)CC2(CC2)C1 [Compound 117] |
| > 7.00 | COc1cc(-n2cc3c(C(F)(F)F)cc(CN4CCC(C)(F)CC4)cn3c2=O)cc(C2(Cc3nncn3C)COC2)c1 [Compound 121] |
| > 7.00 | Cn1cnnc1CC1(c2cccc(-n3cc4c(C(F)(F)F)cc(CN5CC6(CC6)C5)cn4c3=O)c2)COC1 [Compound 21] |
| > 7.00 | Cn1cnnc1CC1(c2cccc(-n3cc4c(C(F)(F)F)cc(CN5CC[C@H](F)C5)cn4c3=O)c2)COC1 [Compound 14] |
| 6.00 to 6.52 | Cn1cnnc1CC1(c2cccc(-n3cc4c(C(F)(F)F)cc(C5CCN(C(=O)OC(C)(C)C)C5)cn4c3=O)c2)COC1 (centres unmarked) [Compound 65] |
| > 7.00 | [2H]C([2H])([2H])n1cnnc1C1(c2cccc(-n3cc4c(C(F)(F)F)cc(CN5CCO[C@H](C)C5)cn4c3=O)c2)CC2(CC2)C1 [Compound 118] |
| < 5.00 | C[C@H](Sc1nncn1C)c1cccc(-n2cc3c(C(F)(F)F)cccn3c2=O)c1 [Compound 6] |
| 6.52 to 7.00 | Cn1cnnc1CC1(c2cccc(-n3cc4c(C(F)(F)F)cc(CN5CC[C@H](O)C5)cn4c3=O)c2)COC1 [Compound 129] |
| 6.00 to 6.52 | [2H]C([2H])([2H])n1cnnc1[C@H](c1cccc(-n2cc3c(C(F)(F)F)cc(CN4CCC[C@H](C)C4)cn3c2=O)c1)C1CCC1 (single isomer, unassigned) [Compound 136] |
| > 7.00 | [2H]C([2H])([2H])n1cnnc1C1(c2cccc(-n3cc4c(C(F)(F)F)cc(CN5CCC[C@H](C)C5)cn4c3=O)c2)CC2(CC2)C1 [Compound 102] |
| > 7.00 | Cn1cnnc1[C@@H](c1cccc(-n2cc3c(C(F)(F)F)cc(CN4CCc5ncsc5C4)cn3c2=O)c1)C1COC1 [Compound 345] |
| > 7.00 | Cn1cnnc1[C@@H](c1cccc(-n2cc3c(C(F)(F)F)cc(CN4CC(C(F)(F)F)C4)cn3c2=O)c1)C1CCC1 [Compound 313] |
| > 7.00 | Cn1cnnc1CC1(c2cccc(-n3cc4c(C(F)(F)F)cc(CN5CCC[C@H](O)C5)cn4c3=O)c2)COC1 [Compound 125] |
| 5.00 to 5.52 | Cn1cnnc1[C@H](c1cccc(-n2cc3c(C(F)(F)F)cc(CN4CC5(CC5)C4)cn3c2=O)c1)C1CCC1 (single isomer, unassigned) [Compound 164] |

Same assay, conditions: second part of Table 2 (head 'Patent Cmpd No / Updated Activity'); same CBL-B TR-FRET IC50 bins A-F; read-out: Updated Activity

| pIC50 | SMILES |
| --- | --- |
| > 7.00 | C[C@H]1CCCN(Cc2cc(C(F)(F)F)c3cn(-c4cc(F)cc([C@@H](c5nncn5C)C5COC5)c4)c(=O)n3c2)C1 (single isomer, unassigned) [Compound 477] |
| 5.52 to 6.00 | Cn1cnnc1[C@@H](c1cc(F)cc(-n2cc3c(C(F)(F)F)cc(CN4CC5(CC5)C4)cn3c2=O)c1)C1CCC1 (single isomer, unassigned) [Compound 533] |
| < 5.00 | C[C@@H]1CN(Cc2cc(C(F)(F)F)c3cn(-c4cc(F)cc([C@@H](c5nncn5C)C5CCC5)c4)c(=O)n3c2)CCO1 (single isomer, unassigned) [Compound 515] |
| > 7.00 | C[C@H]1CCCN(Cc2cc(C(F)(F)F)c3cn(-c4cccc([C@@H](c5nncn5C)[C@H]5C[C@H](O)C5)c4)c(=O)n3c2)C1 (single isomer, unassigned) [Compound 438] |
| < 5.00 | C[C@H]1CCCN(Cc2cc(C(F)(F)F)c3cn(-c4cccc([C@@H](c5nc(CO)cn5C)C5CCC5)c4)c(=O)n3c2)C1 (single isomer, unassigned) [Compound 584] |
| > 7.00 | COC(=O)N1CC[C@H](c2cc(C(F)(F)F)c3cn(-c4cccc([C@H](c5nncn5C)C5CCC5)c4)c(=O)n3c2)C1 (single isomer, unassigned) [Compound 408] |
| < 5.00 | C[C@H]1CCCN(Cc2cc(C(F)(F)F)c3cn(-c4cccc([C@H](c5nncn5C)[C@H]5C[C@@](C)(O)C5)c4)c(=O)n3c2)C1 (single isomer, unassigned) [Compound 574] |
| 6.52 to 7.00 | CO[C@H]1C[C@](c2cccc(-n3cc4c(C(F)(F)F)cc([C@@H](C)N5CCC(F)CC5)cn4c3=O)c2)(c2nncn2C)C1 (single isomer, unassigned) [Compound 606] |
| > 7.00 | COCCO[C@@H]1CCCN(Cc2cc(C(F)(F)F)c3cn(-c4cccc([C@H](c5nncn5C)C5CCC5)c4)c(=O)n3c2)C1 (single isomer, unassigned) [Compound 519] |
| > 7.00 | [2H]C([2H])(c1cc(C(F)(F)F)c2cn(-c3cccc([C@H](c4nncn4C)C4COC4)c3)c(=O)n2c1)N1CCC[C@H](C)C1 [Compound 546] |
| < 5.00 | C[C@H]1CCCN(Cc2cc(C(F)(F)F)c3cn(-c4cccc([C@H](c5nncn5C)[C@H]5C[C@H](O)C5)c4)c(=O)n3c2)C1 (single isomer, unassigned) [Compound 435] |
| 6.00 to 6.52 | Cn1cnnc1[C@H](c1cc(F)cc(-n2cc3c(C(F)(F)F)cc(CN4CCC(C)(F)CC4)cn3c2=O)c1)C1CCC1 (single isomer, unassigned) [Compound 540] |
| > 7.00 | Cn1cnnc1[C@@H](c1cccc(-n2cc3c(C(F)(F)F)cc(CN4CCOC4=O)cn3c2=O)c1)C1CCC1 [Compound 468] |
| < 5.00 | Cn1cnnc1[C@@H](c1cc(C#N)cc(-n2cc3c(C(F)(F)F)cc(CN4CC5(CC5)C4)cn3c2=O)c1)C1CCC1 (single isomer, unassigned) [Compound 557] |
| 6.00 to 6.52 | Cn1cnnc1[C@H](c1cc(-c2cnn[nH]2)cc(-n2cc3c(C(F)(F)F)cccn3c2=O)c1)C1CCC1 [Compound 535] |
| < 5.00 | C[C@H]1CCCN(Cc2cc(C(F)(F)F)c3cn(-c4cccc([C@@H](CC5(C#N)CC5)c5nncn5C)c4)c(=O)n3c2)C1 (single isomer, unassigned) [Compound 405] |
| > 7.00 | [2H]C([2H])(c1cc(C(F)(F)F)c2cn(-c3cccc([C@H](c4nncn4C)C4CCC4)c3)c(=O)n2c1)N1CCC[C@H](C)C1 [Compound 487] |
| > 7.00 | Cn1cnnc1[C@@H](c1cccc(-n2cc3c(C(F)(F)F)cc(CN4CCCOC4=O)cn3c2=O)c1)C1CCC1 [Compound 467] |
| > 7.00 | CN1CC[C@@]2(CCN(Cc3cc(C(F)(F)F)c4cn(-c5cccc([C@H](c6nncn6C)C6CCC6)c5)c(=O)n4c3)C2)C1=O (single isomer, unassigned) [Compound 623] |
| > 7.00 | CN1C(=O)CCN1Cc1cc(C(F)(F)F)c2cn(-c3cccc([C@H](c4nncn4C)C4CCC4)c3)c(=O)n2c1 [Compound 498] |
| > 7.00 | C[C@H]1CCN1Cc1cc(C(F)(F)F)c2cn(-c3cccc([C@H](c4nncn4C)C4CCC4)c3)c(=O)n2c1 [Compound 565_P2] |

Source: patent US20240228482A1, “COMPOUNDS, COMPOSITIONS AND METHODS OF TREATING CANCER” (HOTSPOT THERAPEUTICS, INC., priority 2021, published 2024)
